For test [1], the system named is etiolated eto1-4 seedlings. The test can be described thus: Triple response phenotype / hypocotyl length of etiolated eto1-4 seedlings. The test is classed as in vivo, Arabidopsis thaliana. The settings on record: 10 μM; etiolated eto1-4; FIG. 3. The procedure:
All mutants and transgenic plants were derived from the wild-type Arabidopsis thaliana Columbia ecotype (Col-0) and cultivated under a long-day condition (16-h light/8-h dark at 22° C.) under exemplary e light (100-150 μE m^−2 s^−1). A reporter construct, 5×EBS::LUC (a generous gift from Drs. Hai Li and Anna N. Stepanova, Salk Institute, USA), containing 5 copies of EIN3 binding sequence (EBS) fused with luciferase gene (LUC) was transformed to eto1-4 and subsequently used for screening compounds of a chemical library. Ethylene mutants eto1-4, eto2-1, ctr1-1 and the EIN3 overexpression line (35S::EIN3) were described previously (Solano, et al. (1998) Genes Dev 12, 3703-3714). Seeds were sterilized with 30% bleach for 6 min and sown in half-strength Murashige and Skoog (0.5×MS) medium supplemented with 0.8% agar and stratified in the dark at 4° C. for 3-4 days before germination. For analysis of the triple response phenotype, stratified seeds were grown in the dark at 22° C. for 3 days before scoring the phenotype.
A DIVERSet library (ChemBridge Inc.) containing 10,000 small molecules (in DMSO) was used for chemical screening. Three rounds of chemical screenings were carried out in 0.5×MS agar medium containing individual chemicals in each well of 96- and 24-well micro-titer plates. The initial screening was performed by sowing 10 to 15 seeds in the wells of micro-titer plates containing small molecules at 50 μM to score the long-hypocotyl phenotype. For the second and third screenings, we used 25 μM of small molecules selected from the first round of screening to score and confirm the phenotype. The seedling phenotype was scored by use of a digital camera attached to a Zeiss stereomicroscope (SteREO V8), and quantitation of hypocotyl length was performed by use of NIH Image J software. AVG and silver thiosulfate (STS, by mixing silver nitrate and sodium thiosulfate at a 1:4 molar ratio immediately before use) were obtained from Sigma and used as controls to suppress ethylene biosynthesis and perception, respectively. Agar medium was supplemented with 1-aminocyclopropane-1-carboxylic acid (10 μM, Merck) to induce the triple response in etiolated seedlings.
Shortened hypocotyls in etiolated seedlings is one of the triple response phenotypes (Guzman, et al. (1990) Plant Cell 2, 513-523; Wang, et al. (2004) Nature 428, 945-950). Two chemical compounds negating ethylene response, AVG and STS, were included as a control for comparison.

Test [2] deals with 5×EBS::LUC reporter (EIN3 binding sequence) in eto1-4. The experiment in a line: Luciferase activity of 5×EBS::LUC reporter in eto1-4 seedlings. In kind it is in vivo, Arabidopsis thaliana. As to conditions: 10 μM.
Description: For live imaging of luciferase activity, plants were first grown in the dark at 22° C. for 3 days, then under exemplary e light for 3 more days before the luciference of seedlings was imaged. Six-day-old seedlings were sprayed with luciferin (2 μM, Biosynth International Inc.) and kept in the dark for 5 min before collecting images by the Xenogen IVIS System (Caliper Life Sciences, Inc.). For quantitative assay of luciferase activity, the etiolated seedlings mentioned above were transferred to exemplary e micro-titer plates (Packard Optiplate-96, Perkin Elmer Inc.) for an additional 3 days under exemplary e light in 0.5×MS solution. The luciferase activity of seedlings was quantitated by use of a microplate reader (CHAMELEON, Hidex Inc.) in the presence of 2 μM luciferin.
To confirm the suppression of the eto1-4 phenotype resulting from disruption of the ethylene response, the following assays were performed. First, luciferase activity was analyzed with a transgenic reporter line harboring 5 copies of a synthetic promoter fusion with a luciferase gene (LUC), 5×EBS::LUC, in the eto1-4 background.

Take `CC1CC(=O)c2cnc(Nc3ccccc3)nc2C1` (centres unmarked) [Compound 2305]: the “ranking in both hypocotyl length and ethylene level assays” value (“ranking” below) in test [1] was “most effective”.

Turning to `CCCCNc1ncc2c(n1)CC(c1ccccc1)CC2=O` (centres unmarked) [Compound 2616], the “ranking” value in test [1] is “most effective”.

On to `O=C1CC(c2ccccc2Cl)Cc2nc(NC3CCCC3)ncc21` (centres unmarked) [Compound 8107], for which the “ranking” value in test [1] is on record as “most effective”.

Take `CC1(C)CC(=O)c2cnc(Nc3ccccc3)nc2C1` [Compound 9028]: in test [1], the “ranking” value is reported as “most effective”.

As to silver thiosulfate [STS], the “luciferase activity of 5×EBS::LUC in eto1-4” value in test [2] was “suppressed”.

For the origin of these results see patent US8481459B2, “Chemical inhibitors of ethylene biosynthesis” (Academia Sinica, priority 2010, dated 2013).
